Assay type in all cases: in vivo
Assay [1] has as its system LOLPE (Lolium perenne). Description: Pre-sowing application action against weeds (7 days prior to sowing), test method 5. The conditions noted are these: application 7 days prior to sowing; g of AS/ha: (A) 90, (B) 1200, (C) 140, (A)+(B)+(C) 90 + 1200 + 140. Here is the method: (§1) In the standard design of the test, seeds of various broad-leaved weed and weed grass biotypes (origins) were sown in a 8-13 cm diameter pot filled with natural soil of a standard field soil (loamy silt; non-sterile) and covered with a covering soil layer of about 1 cm. The pots were then cultivated in a greenhouse (12-16 h of light, temperature day 20-22° C., night 15-18° C.) until the time of application. The pots were treated on a laboratory track sprayer with spray liquors comprising the compositions according to the invention, mixtures of the prior art or components used individually. Application of the active compounds or active compound combinations formulated as WG, WP, EC or otherwise was carried out at the appropriate growth stages of the plants. The application rate for the spray application was 100-600 l of water/ha. After the treatment, the plants were returned to the greenhouses.
(§2) About 3 weeks after the application, the soil action or/and foliar action was assessed visually according to a scale of 0-100% in comparison to an untreated comparative group: 0%=no noticeable effect compared to the untreated comparative group; 100%=full effect compared to the untreated comparative group.
(notes: the term “seeds” also includes vegetative propagation forms such as, for example, rhizome pieces; abbreviations used: h light=hours of illumination, g of AS/ha=gram of active substance per hectare, l/ha=liter per hectare, S=sensitive, R=resistant) • 1. Pre-emergence action against weeds: seeds of various broad-leaved weed and weed grass biotypes (origins) were sown in a 8-13 cm diameter pot filled with natural soil of a standard field soil (loamy silt; non-sterile) and covered with a covering soil layer of about 1 cm. The pots were then cultivated in a greenhouse (12-16 h of light, temperature day 20-22° C., night 15-18° C.) until the time of application. The pots were treated at the BBCH stage 00-10 of the seeds/plants on a laboratory track sprayer with spray liquors comprising the compositions according to the invention, mixtures or components used individually, as WG, WP, EC or other formulations. The application rate for the spray application was 100-600 l of water/ha. After the treatment, the plants were returned to the greenhouses and, when required, treated with fertilizer and watered. • 2. Post-emergence action against weeds: seeds of various broad-leaved weed and weed grass biotypes (origins) were sown in a 8-13 cm diameter pot filled with natural soil of a standard field soil (loamy silt; non-sterile) and covered with a covering soil layer of about 1 cm. The pots were then cultivated in a greenhouse (12-16 h of light, temperature day 20-22° C., night 15-18° C.) until the time of application. […]

Assay [2] deals with ALOMY resistant (Alopecurus myosuroides). The assay is described as follows: PE action on resistant weed biotypes, test method 8. Conditions: PE application; g of AS/ha: (A) 90, (B) 1200, (C) 140, (A)+(B)+(C) 90 + 1200 + 140, iodosulfuron 10. Here is the method: as §1, §2
(§3) (notes: the term “seeds” also includes vegetative propagation forms such as, for example, rhizome pieces; abbreviations used: h light=hours of illumination, g of AS/ha=gram of active substance per hectare, l/ha=liter per hectare, S=sensitive, R=resistant) • 1. Pre-emergence action against weeds: seeds of various broad-leaved weed and weed grass biotypes (origins) were sown in a 8-13 cm diameter pot filled with natural soil of a standard field soil (loamy silt; non-sterile) and covered with a covering soil layer of about 1 cm. The pots were then cultivated in a greenhouse (12-16 h of light, temperature day 20-22° C., night 15-18° C.) until the time of application. The pots were treated at the BBCH stage 00-10 of the seeds/plants on a laboratory track sprayer with spray liquors comprising the compositions according to the invention, mixtures or components used individually, as WG, WP, EC or other formulations. The application rate for the spray application was 100-600 l of water/ha. After the treatment, the plants were returned to the greenhouses and, when required, treated with fertilizer and watered. • 2. Post-emergence action against weeds: seeds of various broad-leaved weed and weed grass biotypes (origins) were sown in a 8-13 cm diameter pot filled with natural soil of a standard field soil (loamy silt; non-sterile) and covered with a covering soil layer of about 1 cm. The pots were then cultivated in a greenhouse (12-16 h of light, temperature day 20-22° C., night 15-18° C.) until the time of application. The pots were treated at various BBCH stages between 11-25 of the seeds/plants, i.e. generally between two to three weeks after the start of the cultivation, on a laboratory track sprayer with spray liquors comprising the compositions according to the invention, mixtures or components used individually, as WG, WP, EC or other formulations. The application rate for the spray application was 100-600 l of water/ha. After the treatment, the plants were returned to the greenhouses and, when required, treated with fertilizer and watered. • 3. Selective pre-emergence action: seeds of various crop species (origins) were sown in a 8-13 cm diameter pot filled with natural soil of a standard field soil (loamy silt; non-sterile) and covered with a covering soil layer of about 1 cm. The pots were then cultivated in a greenhouse (12-16 h of light, temperature day 20-22° C., night 15-18° C.) until the time of application. The pots were treated at the BBCH stage 00-10 of the seeds/plants on a laboratory track sprayer with spray liquors comprising the compositions according to the invention, mixtures or components used individually, as WG, WP, EC or other formulations. The application rate for the spray application was 100-600 l of water/ha. […]

The test system of assay [3] is ALOMY sensitive (Alopecurus myosuroides). Described as above. The conditions noted are these: PE application; g of AS/ha: (A) 90, (B) 1200, (C) 140, (A)+(B)+(C) 90 + 1200 + 140, iodosulfuron 10. Here is the method:
as §1, §2, §3

For assay [4], the system named is LOLSS sensitive (Lolium species). The assay is described as above. The conditions noted are these: PE application; g of AS/ha: (A) 90, (B) 1200, (C) 140, (A)+(B)+(C) 90 + 1200 + 140, iodosulfuron 10. Here is the method: as §1, §2, §3
In assay [5] the test system is MATCH (Matricaria chamomilla). Description: PE action under various irrigation conditions, test method 6. The conditions noted are these: PE application; irrigation from below; g of AS/ha: (A) 90, (B) 1200, (C) 140, (A)+(B)+(C) 90 + 1200 + 140. Here is the method:
as §1, §2, §3

Assay [6] deals with LOLPE (Lolium perenne). The assay is described as above. Conditions: PE application, g of AS/ha: (A) 90, (B) 1200, (C) 140, (A)+(B)+(C) 90 + 1200 + 140. Here is the method: as §1, §2, §3
Assay [7] deals with MATCH (Matricaria chamomilla). Description: Action under various soil conditions (soil types), test method 7. Conditions: g of AS/ha: (A) 90, (B) 1200, (C) 140, (A)+(B)+(C) 90 + 1200 + 140. Here is the method: as §1, §2, §3
Assay [8] concerns HORVS (Hordeum vulgare, summer barley). Description: Action under various soil conditions (soil types), test method 7, crop compatibility. The conditions noted are these: IU/EC73 soil versus IU soil; g of AS/ha: (A) 90, (B) 1200, (C) 140, (A)+(B)+(C) 90 + 1200 + 140. The method, then:
as §1, §2
(§4) (notes: the term “seeds” also includes vegetative propagation forms such as, for example, rhizome pieces; abbreviations used: h light=hours of illumination, g of AS/ha=gram of active substance per hectare, l/ha=liter per hectare, S=sensitive, R=resistant) • 1. Pre-emergence action against weeds: seeds of various broad-leaved weed and weed grass biotypes (origins) were sown in a 8-13 cm diameter pot filled with natural soil of a standard field soil (loamy silt; non-sterile) and covered with a covering soil layer of about 1 cm. The pots were then cultivated in a greenhouse (12-16 h of light, temperature day 20-22° C., night 15-18° C.) until the time of application. The pots were treated at the BBCH stage 00-10 of the seeds/plants on a laboratory track sprayer with spray liquors comprising the compositions according to the invention, mixtures or components used individually, as WG, WP, EC or other formulations. The application rate for the spray application was 100-600 l of water/ha. After the treatment, the plants were returned to the greenhouses and, when required, treated with fertilizer and watered. • 2. Post-emergence action against weeds: seeds of various broad-leaved weed and weed grass biotypes (origins) were sown in a 8-13 cm diameter pot filled with natural soil of a standard field soil (loamy silt; non-sterile) and covered with a covering soil layer of about 1 cm. The pots were then cultivated in a greenhouse (12-16 h of light, temperature day 20-22° C., night 15-18° C.) until the time of application. The pots were treated at various BBCH stages between 11-25 of the seeds/plants, i.e. generally between two to three weeks after the start of the cultivation, on a laboratory track sprayer with spray liquors comprising the compositions according to the invention, mixtures or components used individually, as WG, WP, EC or other formulations. The application rate for the spray application was 100-600 l of water/ha. After the treatment, the plants were returned to the greenhouses and, when required, treated with fertilizer and watered. • 3. […]

The test system of a further assay is VIOAR (Viola arvensis). The assay is described as follows: Post-emergence (PO) action against weeds, greenhouse trial, test method 2. The conditions noted are these: PO application; g of AS/ha: (A) 240, (B) 1200, (C) 140, (A)+(B)+(C) 240 + 1200 + 140. The method, then: as §1, §2, §4
A further assay deals with AVEFA (Avena fatua). Description: PE action at different soil pH values, test method 10. The conditions noted are these: PE application, g of AS/ha: (A) 90, (B) 1200, (C) 140, (A)+(B)+(C) 90 + 1200 + 140. The method, then: as §1, §2
In assay [9] the test system is HORVS (Hordeum vulgare, summer barley). Description: Selective post-emergence action (crop compatibility), greenhouse trial, test method 4. The conditions noted are these: PO application; g of AS/ha: (A) 240, (B) 1200, (C) 140, (A)+(B)+(C) 240 + 1200 + 140. The method, then:
as §1, §2
(notes: the term “seeds” also includes vegetative propagation forms such as, for example, rhizome pieces; abbreviations used: h light=hours of illumination, g of AS/ha=gram of active substance per hectare, l/ha=liter per hectare, S=sensitive, R=resistant) • 1. Pre-emergence action against weeds: seeds of various broad-leaved weed and weed grass biotypes (origins) were sown in a 8-13 cm diameter pot filled with natural soil of a standard field soil (loamy silt; non-sterile) and covered with a covering soil layer of about 1 cm. The pots were then cultivated in a greenhouse (12-16 h of light, temperature day 20-22° C., night 15-18° C.) until the time of application. […]

As to `CC(C)N(C(=O)COc1nnc(C(F)(F)F)s1)c1ccc(F)cc1` [(A) flufenacet, N-(4-fluorophenyl)-N-(1-methylethyl)-2-[[5-(trifluoromethyl)-1,3,4-thiadiazol-2-yl]oxy]acetamide], the “activity LOLPE” value in the assay on LOLPE (Lolium perenne) [1] stood at 93%; in the assay with LOLPE (Lolium perenne) [6] (irrigation from above), 82%; in the assay on LOLPE (Lolium perenne) [6] (irrigation from below) it was 75%. Besides, in assay [2], the “activity ALOMY resistant” value is 68%. Besides, in assay [3], the “activity ALOMY sensitive” value is on record as 80%. The “activity LOLSS sensitive” value in [4] is given as 5%. Further, in assay [5], the “activity MATCH” value was determined as 15%. Moreover, in [7] (IU soil), the “activity MATCH IU soil” value worked out at 28%. Also, the “Difference of the soil types, MATCH” value in assay [7] (IU/EC73 soil versus IU soil) was −23%. For the same compound, in assay [7] (IU/EC73 soil), the “activity MATCH IU/EC73 soil” value was 5%. In addition, the “Difference of the soil types, HORVS” value in assay [8] is on record as −10%. The “activity VIOAR (visual, scale 0-100%)” value in the assay with VIOAR (Viola arvensis) worked out at 50%. In the assay on AVEFA (Avena fatua) (soil pH 7.4), the “activity AVEFA pH 7.4” value was 80%. Besides, the “activity AVEFA pH 8.4” value with AVEFA (Avena fatua) (soil pH 8.4) is 55%. In addition, in assay [9], the “activity HORVS (crop plant; visual, scale 0-100%)” value came out at 60%.

For the origin of these results see patent US20110152093A1, “Herbicidal compositions comprising flufenacet” (Bayer CropScience AG, priority 2009, published 2011).
